Data on 15 molecules can be found in ChEMBL document CHEMBL3785081 (J Med Chem, 2016).

One series relates to Liver microsome. The series is described as follows: Intrinsic clearance in human liver microsomes. The series is classed as ADME.
Series [1] is described as follows: Lipophilicity, log D of the compound at pH 7.4. The format is physicochemical. Conditions: buffer.

In general, logD refers to the decadic logarithm of the distribution of all forms, ionised or not, between an organic phase and buffer at a given pH. Read a high logD as higher lipophilicity. `C=CC(=O)N1C[C@H](COc2nc(Nc3cnn(C)c3)nc3[nH]ccc23)[C@@H](C(F)(F)F)C1` yielded a CLint in the series with Liver microsome of 26 µL/min/g. Moreover, the log distribution coefficient (logD) in series [1] is 2.7.
For `C=CC(=O)N1C[C@H](COc2nc(Nc3cnn(C)c3)nc3[nH]cc(Cl)c23)[C@@H](O)C1`, in that order: 12 µL/min/g and 2.
For `C=CC(=O)Nc1cccc(Oc2nc(Nc3ccn(C)n3)nc3[nH]ccc23)c1`, in that order: 11 µL/min/g and 3.
For `C=CC(=O)N1C[C@H](COC)[C@@H](COc2nc(Nc3cnn(C)c3)nc3[nH]cc(Cl)c23)C1`, in that order: 23 µL/min/g and 2.9.
Turning to `C=CC(=O)N1C[C@H](CO)[C@@H](COc2nc(Nc3cnn(C)c3)nc3[nH]cc(Cl)c23)C1`, the CLint in the series with Liver microsome was 13 µL/min/g. Moreover, the pH-dependent lipophilicity (logD) in series [1] came out at 2.3.
For `C=CC(=O)N1C[C@H](COc2nc(Nc3cnn(C)c3)nc3[nH]cc(Cl)c23)[C@@H](C(F)(F)F)C1`, in that order: 37 µL/min/g and 3.
The molecule `C#CCCn1cc(Nc2nc(OC[C@H]3CN(C(=O)C=C)C[C@@H]3OC)c3c(Cl)c[nH]c3n2)cn1` came in with a logD in series [1] of 3.
For `C=CC(=O)N1CC[C@@H](COc2nc(Nc3cnn(C)c3)nc3[nH]cc(Cl)c23)C1`, in the series with Liver microsome, the CLint worked out at 45 µL/min/g. Also, the logD in series [1] came to 2.91.
For `C=CC(=O)Nc1cccc(Oc2nc(Nc3cnn(C)c3)nc3[nH]ccc23)c1`, in that order: 66 µL/min/g and 3.2.
For `C=CC(=O)N1C[C@@H](COc2nc(Nc3cnn(C)c3)nc3[nH]cc(Cl)c23)[C@H](OC)C1`, in that order: 24 µL/min/g and 2.4.
For `C=CC(=O)N1C[C@H](COc2nc(Nc3cnn(C)c3)nc3[nH]cc(Cl)c23)[C@@H](F)C1`, in that order: 28 µL/min/g and 2.7.
Regarding `C=CC(=O)N1CC[C@@H](COc2nc(Nc3cnn(C)c3)nc3[nH]ccc23)C1`, the CLint in the series on Liver microsome was found to be 56 µL/min/g. The same molecule yielded a logD in series [1] of 2.1.
In series [1], `C#CCOc1cc2ncnc(Nc3ccc(F)c(Cl)c3)c2cc1NC(=O)C=C` came in with a logD of 4.
The molecule `C=CC(=O)Nc1cccc(Oc2nc(Nc3ccc(N4CCN(C)CC4)cc3)nc3[nH]ccc23)c1` showed a CLint in the series on Liver microsome of 20 µL/min/g. The molecule further returned a logD in series [1] of 2.7.
For `C=CC(=O)N1C[C@H](COc2nc(Nc3cnn(C)c3)nc3[nH]cc(Cl)c23)[C@@H](OC)C1` [PF-06459988], in that order: 18 µL/min/g and 2.5.
